The supplement of paper PMC10307832

Tests used:
Test in all cases: relative viability (nuclei count vs DMSO), 5 days (fraction); higher = more cells survive
A-427 = tested on: A-427
In short: (§1)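 Nuclei were stained with Hoechst during a one-step fixation (final 0.05% Triton X-100, 1% formaldehyde, 1 ug/ml Hoechst) carried out 5 days after dosing, then counted on 4× images. The cells, lung cancer lines in 1536-well plates, had been dosed by pin tool the day after seeding with one drug alone or a fixed anchor-drug dose plus five library-drug doses (not always all listed) in √10 steps. Relative viability is the nuclei count in treated wells divided by that in vehicle wells, and each value is the median of duplicate plates.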

NCI-H2342 = tested on: NCI-H2342
In short: as §1

NCI-H1975 = tested on: NCI-H1975
In short: as §1

SW 900 = tested on: SW 900
In short: as §1

NCI-H1792 = tested on: NCI-H1792
In short: as §1

NCI-H1734 = tested on: NCI-H1734
In short: as §1

NCI-H2405 = tested on: NCI-H2405
In short: as §1

LC-2-ad = tested on: LC-2-ad
In short: as §1

NCI-H520 = tested on: NCI-H520
In short: as §1

COR-L 105 = tested on: COR-L 105
In short: as §1

CAL-12T = tested on: CAL-12T
In short: as §1

SW 1573 = tested on: SW 1573
In short: as §1

HCC-15 = tested on: HCC-15
In short: as §1

HCC-44 = tested on: HCC-44
In short: as §1

NCI-H838 = tested on: NCI-H838
In short: as §1

NCI-H1395 = tested on: NCI-H1395
In short: as §1

LCLC-97TM1 = tested on: LCLC-97TM1
In short: as §1

UMC-11 = tested on: UMC-11
In short: as §1

NCI-H2347 = tested on: NCI-H2347
In short: as §1

NCI-H2023 = tested on: NCI-H2023
In short: as §1

NCI-H1915 = tested on: NCI-H1915
In short: as §1

EPLC-272H = tested on: EPLC-272H
In short: as §1

## Cc1csc(=NC2CCCCC2)n1/N=C/c1ccc(O)c(O)c1O [MIM1] + CC(=O)Nc1cccc(-n2c(=O)n(C3CC3)c(=O)c3c(Nc4ccc(I)cc4F)n(C)c(=O)c(C)c32)c1 [Trametinib] (partner 0.02 µM)
A-427; first compound 0.2 µM
  relative viability: 0.758
A-427; first compound 0.6325 µM
  relative viability: 0.737
A-427; first compound 2 µM
  relative viability: 0.77
A-427; first compound 6.325 µM
  relative viability: 0.672
A-427; first compound 20 µM
  relative viability: 0.37
NCI-H2342; first compound 0.2 µM
  relative viability: 0.842
NCI-H2342; first compound 0.6325 µM
  relative viability: 0.903
NCI-H2342; first compound 2 µM
  relative viability: 0.787
NCI-H2342; first compound 6.325 µM
  relative viability: 0.716
NCI-H2342; first compound 20 µM
  relative viability: 1.1
NCI-H1975; first compound 0.2 µM
  relative viability: 0.366
NCI-H1975; first compound 0.6325 µM
  relative viability: 0.372
NCI-H1975; first compound 2 µM
  relative viability: 0.376
NCI-H1975; first compound 6.325 µM
  relative viability: 0.208
NCI-H1975; first compound 20 µM
  relative viability: 0.123
SW 900; first compound 0.2 µM
  relative viability: 0.831
SW 900; first compound 0.6325 µM
  relative viability: 0.886
SW 900; first compound 2 µM
  relative viability: 0.718
SW 900; first compound 6.325 µM
  relative viability: 0.196
SW 900; first compound 20 µM
  relative viability: 0.21
NCI-H1792; first compound 0.2 µM
  relative viability: 0.4
NCI-H1792; first compound 0.6325 µM
  relative viability: 0.376
NCI-H1792; first compound 2 µM
  relative viability: 0.456
NCI-H1792; first compound 6.325 µM
  relative viability: 0.384
NCI-H1792; first compound 20 µM
  relative viability: 0.325
NCI-H1734; first compound 0.2 µM
  relative viability: 0.786
NCI-H1734; first compound 0.6325 µM
  relative viability: 0.676
NCI-H1734; first compound 2 µM
  relative viability: 0.607
NCI-H1734; first compound 6.325 µM
  relative viability: 0.583
NCI-H1734; first compound 20 µM
  relative viability: 0.183
NCI-H2405; first compound 0.2 µM
  relative viability: 0.586
NCI-H2405; first compound 0.6325 µM
  relative viability: 0.75
NCI-H2405; first compound 2 µM
  relative viability: 0.656
NCI-H2405; first compound 6.325 µM
  relative viability: 0.603
NCI-H2405; first compound 20 µM
  relative viability: 0.685
LC-2-ad; first compound 0.2 µM
  relative viability: 0.904
LC-2-ad; first compound 0.6325 µM
  relative viability: 0.941
LC-2-ad; first compound 2 µM
  relative viability: 0.913
LC-2-ad; first compound 6.325 µM
  relative viability: 0.529
LC-2-ad; first compound 20 µM
  relative viability: 0.739
NCI-H520; first compound 0.2 µM
  relative viability: 0.625
NCI-H520; first compound 0.6325 µM
  relative viability: 0.707
NCI-H520; first compound 2 µM
  relative viability: 0.652
NCI-H520; first compound 6.325 µM
  relative viability: 0.529
NCI-H520; first compound 20 µM
  relative viability: 0.289
COR-L 105; first compound 0.2 µM
  relative viability: 0.45
COR-L 105; first compound 0.6325 µM
  relative viability: 0.548
COR-L 105; first compound 2 µM
  relative viability: 0.44
COR-L 105; first compound 6.325 µM
  relative viability: 0.406
COR-L 105; first compound 20 µM
  relative viability: 0.439
CAL-12T; first compound 0.2 µM
  relative viability: 0.406
CAL-12T; first compound 0.6325 µM
  relative viability: 0.378
CAL-12T; first compound 2 µM
  relative viability: 0.341
CAL-12T; first compound 6.325 µM
  relative viability: 0.316
CAL-12T; first compound 20 µM
  relative viability: 0.249
SW 1573; first compound 0.2 µM
  relative viability: 0.647
SW 1573; first compound 0.6325 µM
  relative viability: 0.574
SW 1573; first compound 2 µM
  relative viability: 0.553
SW 1573; first compound 6.325 µM
  relative viability: 0.361
SW 1573; first compound 20 µM
  relative viability: 0.13
HCC-15; first compound 0.2 µM
  relative viability: 0.363
HCC-15; first compound 2 µM
  relative viability: 0.372
HCC-15; first compound 6.325 µM
  relative viability: 0.377
HCC-15; first compound 20 µM
  relative viability: 0.133
HCC-44; first compound 0.2 µM
  relative viability: 1.05
HCC-44; first compound 0.6325 µM
  relative viability: 1.07
HCC-44; first compound 2 µM
  relative viability: 1.06
HCC-44; first compound 6.325 µM
  relative viability: 1.13
HCC-44; first compound 20 µM
  relative viability: 0.304
NCI-H838; first compound 0.2 µM
  relative viability: 0.463
NCI-H838; first compound 0.6325 µM
  relative viability: 0.572
NCI-H838; first compound 2 µM
  relative viability: 0.544
NCI-H838; first compound 6.325 µM
  relative viability: 0.353
NCI-H838; first compound 20 µM
  relative viability: 0.178
NCI-H1395; first compound 0.2 µM
  relative viability: 0.976
NCI-H1395; first compound 0.6325 µM
  relative viability: 1.04
NCI-H1395; first compound 2 µM
  relative viability: 0.937
NCI-H1395; first compound 6.325 µM
  relative viability: 0.812
NCI-H1395; first compound 20 µM
  relative viability: 0.54
LCLC-97TM1; first compound 0.2 µM
  relative viability: 0.207
LCLC-97TM1; first compound 0.6325 µM
  relative viability: 0.218
LCLC-97TM1; first compound 2 µM
  relative viability: 0.217
LCLC-97TM1; first compound 6.325 µM
  relative viability: 0.196
LCLC-97TM1; first compound 20 µM
  relative viability: 0.0682
UMC-11; first compound 0.2 µM
  relative viability: 0.724
UMC-11; first compound 0.6325 µM
  relative viability: 0.267
UMC-11; first compound 2 µM
  relative viability: 0.751
UMC-11; first compound 6.325 µM
  relative viability: 0.475
UMC-11; first compound 20 µM
  relative viability: 0.156
NCI-H2347; first compound 0.2 µM
  relative viability: 0.309
NCI-H2347; first compound 0.6325 µM
  relative viability: 0.358
NCI-H2347; first compound 2 µM
  relative viability: 0.283
NCI-H2347; first compound 6.325 µM
  relative viability: 0.315
NCI-H2347; first compound 20 µM
  relative viability: 0.27
NCI-H2023; first compound 0.2 µM
  relative viability: 0.505
NCI-H2023; first compound 0.6325 µM
  relative viability: 0.562
NCI-H2023; first compound 2 µM
  relative viability: 0.52
NCI-H2023; first compound 6.325 µM
  relative viability: 0.247
NCI-H2023; first compound 20 µM
  relative viability: 0.0881
NCI-H1915; first compound 0.2 µM
  relative viability: 0.31
NCI-H1915; first compound 0.6325 µM
  relative viability: 0.27
NCI-H1915; first compound 2 µM
  relative viability: 0.279
NCI-H1915; first compound 6.325 µM
  relative viability: 0.314
NCI-H1915; first compound 20 µM
  relative viability: 0.357
EPLC-272H; first compound 0.2 µM
  relative viability: 0.322
EPLC-272H; first compound 0.6325 µM
  relative viability: 0.279
EPLC-272H; first compound 2 µM
  relative viability: 0.273
EPLC-272H; first compound 6.325 µM
  relative viability: 0.24
EPLC-272H; first compound 20 µM
  relative viability: 0.16
